Assay [1] has as its system ST88-14 cells. The assay can be described thus: Real-time quantitative PCR of tumorigenic genes in ST88-14 cells. It counts as cell-based, human. The note with it: 48 h, normalized by GAPDH. How it is done:
Effect of OSHP-1 on the expression of tumorigenic genes. To ascertain whether OSHP-1 decreased the proliferation of ST 88-14 cells, by decreasing the expression of tumorigenic genes, total RNA was isolated from the ST88-14 cells as well as normal Human Schwann cells treated with varying concentrations of OSHP-1 (for 48 h) mentioned above. The RNA was reverse transcribed to cDNA and subjected to quantitative PCR using reverse and forward primers of FAX2, FOXN4, IGF2 TLXI genes (Lee et 2014), and was normalized by the expression of GAPDH (FIG. 5A).

The test system of assay [2] is ST88-14 cells. In words: Soft Agar colony formation assay (anchorage independent growth). Format: cell-based, human. To be noted: colonies counted manually. The source says: FIG. 7A illustrates a report on effect of OSHP-1 on anchorage independent growth or metastasis, in accordance with an exemplary embodiment of the present disclosure: To determine whether OSHP-1 and its individual components can block the anchorage independent growth of ST88-14 cells, and Normal Human Schwann Cells, by subjecting the cells to Soft Agar colony formation assays the absence and presence of (A) OSHP-1.
FIG. 7B illustrates a report on AA, RA, CA and mixture of three, and the colonies were counted manually, in accordance with an exemplary embodiment of the present disclosure.
(§1) Effect of OSHP-1 on anchorage independent growth or metastasis. To determine whether OSHP-1 and its individual components can block the anchorage independent growth of ST-8814 cells, and Normal Human Schwann by subjecting the cells to Soft Agar colony formation assays in the absence and presence of OSHP-1, AA, RA, CA and mixture of three, and the colonies were counted manual. […] Additionally, we also tested whether OSHP-1 and AA, RA, and CA affect the invasiveness of human metastatic melanoma.

Assay [3] relates to ST88-14 cells. The assay can be described thus: Scratch assay in ST88-14 cells. It counts as cell-based, human.
Source text: FIG. 7C illustrates a report on a scratch assay protocol performed using ST88-14 cells in the absence or presence of OSHP-1, AA, RA, CA, in accordance with an exemplary embodiment of the present disclosure.
as §1

The test system of assay [4] is human metastatic melanoma. In words: Scratch assay in human metastatic melanoma. It counts as cell-based.
Assay [5] relates to ST88-14 cells. The assay can be described thus: MTS cell viability / proliferation assay. It counts as cell-based, human. To be noted: OSHP-1 50-300 ng/ml, 0-72 h. How it is done:
FIG. 4 illustrates a report on cell Viability Assays using the MTS Assay Kit (Colorimetric) (ab 197010) Cell proliferation, in accordance with an exemplary embodiment of the present disclosure. As shown, viability and cytotoxicity was assessed on cells. Cells were treated with the appropriate concentrations of OSHP-1 for 24, 48 and 72 h.
Effect of OSHP-1 on Cell proliferation: We performed MTS assays using cells and treated with increasing concentrations of OSHP-1 (50-300 ng/ml) for 0-72 h.

In assay [6] the test system is lysine acetyltransferase 7 (KAT 7). The assay can be described thus: Immunoblot of nuclear fraction for histone acetyl transferases. It counts as cell-based, human. The note with it: nuclear extract of ST88-14 cells, OSHP-1 50-300 ng/ml, 48 h.
Assay [7] deals with HDAC2. In words: Immunoblot of nuclear fraction for NuRD components. The note with it: nuclear extract of ST88-14 cells, OSHP-1 50-300 ng/ml, 48 h. It counts as cell-based, human.
Source text: CBP, KAT2A, KAT7 acetyl transferases and CHD4, MTA2, MBD2/3, HDAC2, GATA 2 (NuRD) components and b-actin antibodies.

Like-named read-outs stand apart in the source and are kept apart here.

In the case of `O=C(/C=C/c1ccc(O)c(O)c1)O[C@H](Cc1ccc(O)c(O)c1)C(=O)O` [rosmarinic acid], in assay [1], the “FAX2 (PAX2) expression” value is reported as “down-regulated”, the IGF2 expression entry is reported as “down-regulated” and the “TLXI (TLX2) expression” value is on record as “down-regulated”. Further, the anchorage independent growth entry in assay [2] is given as “responsible for the blocking of anchorage independent growth”. Besides, the “invasion and metastasis in scratch assay” value in assay [3] is listed as “decreased metastasis”. In assay [3] (listed as RA), the “invasion and metastasis in scratch assay” value is “responsible for the blocking of anchorage independent growth, invasion and metastasis of MPNSTs”. Also, in assay [4], the “migration of cells in scratch assay” value is “the one contributing to this property”.
As to `CN1c2c(nc(N)[nH]c2=O)NCC1CNc1ccc(C(=O)N[C@@H](CCC(=O)O)C(=O)O)cc1` (some centres unmarked) [MTHF, 5-methyl tetra hydro folate], the “viability and proliferation of ST88-14 cells” value in assay [5] is “increases the cell proliferation”.
As for caffeoylquinic acid, in assay [1], the “FAX2 (PAX2) expression” value is recorded as “down-regulated”, the FOXN4 expression result is recorded as “down-regulated” and the IGF2 expression entry is given as “down-regulated”. Further, the “lysine acetyl transferase KAT 7 activity / levels” value in assay [6] is “decreases”.
As for `O=C1O[C@H]([C@@H](O)CO)C(O)=C1O` [ascorbic acid], in assay [1], the “FAX2 (PAX2) expression” value was “down-regulated”, the IGF2 expression result is on record as “down-regulated” and the “TLXI (TLX2) expression” value is listed as “down-regulated”. In addition, in assay [6], the “lysine acetyl transferase KAT 7 activity / levels” value is given as “decreased”. Besides, in assay [7], the “HDAC2 activity / levels” value is listed as “increased”.

The record behind these values is patent US11389497B2, “Pharmaceutical composition for treating cancer” (Institute of Advance Sciences, Inc., priority 2019, dated 2022).
